The target in experiment [1] is Human immunodeficiency virus type 1 integrase (Human immunodeficiency virus 1, UniProt Q7ZJM1). As to the kind of experiment: Inhibition of HIV1 integrase 3'-strand transfer.
Experiment [2] concerns Human immunodeficiency virus 1. As to the kind of experiment: Antiviral activity against HIV1 NL4-3 infected in human Hut78 cells assessed as inhibition of viral replication in presence of 10 % fetal bovine serum. The class given is functional, organism-based. The note with it: Human immunodeficiency virus 1, NL4-3, HuT78.
The test system of experiment [3] is Human immunodeficiency virus 1. As to the kind of experiment: Antiviral activity against HIV1 NL4-3 infected in human Hut78 cells assessed as inhibition of viral replication in 50 % normal human serum. The class given is functional, organism-based. The following applies: Human immunodeficiency virus 1, NL4-3, HuT78, Serum.

IC50 and EC50 data for 35 compounds are collected here from ChEMBL document CHEMBL1255511, “Design of a series of bicyclic HIV-1 integrase inhibitors. Part 1: selection of the scaffold” (Bioorg Med Chem Lett, 2010).

Human immunodeficiency virus type 1 integrase, sequence (Q7ZJM1 whole entry): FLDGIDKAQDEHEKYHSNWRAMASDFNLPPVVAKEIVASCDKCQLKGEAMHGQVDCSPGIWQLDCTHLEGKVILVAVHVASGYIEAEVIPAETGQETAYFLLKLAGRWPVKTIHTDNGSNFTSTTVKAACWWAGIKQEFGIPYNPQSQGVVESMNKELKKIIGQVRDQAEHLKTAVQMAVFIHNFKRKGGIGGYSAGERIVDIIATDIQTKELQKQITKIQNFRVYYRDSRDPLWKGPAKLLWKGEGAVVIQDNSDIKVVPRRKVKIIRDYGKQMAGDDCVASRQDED

On to `O=C(NCc1ccc(F)cc1)c1nc2sc(N3CCOCC3)cn2c(=O)c1O`, for which, in experiment [1], the IC50 – broadly, the concentration needed to halve the response being measured – is 1130 nM.
Still for that read-out and setting: the same measure for `COc1cccc2c1sc1nc(C(=O)NCc3ccc(F)cc3)c(O)c(=O)n12`: above 50000 nM; for `O=C(NCc1ccc(F)cc1)c1nc2sc3ccccc3n2c(=O)c1O`: above 30000 nM.
As for `Cc1cc2nc(C(=O)NCc3ccc(F)cc3)c(O)c(=O)n2o1`, the IC50 in experiment [1] worked out at 5100 nM.
On the same count and under the same terms, the same measure for `O=C(NCc1ccc(F)cc1)c1nc2c3ccccc3on2c(=O)c1O`: above 10000 nM; for `O=C(NCc1ccc(F)cc1)c1nc2c3ccc(N4CCOCC4)cc3on2c(=O)c1O`: above 10000 nM.
Consider `COc1cc(N2CCOCC2)cn2c(=O)c(O)c(C(=O)NCc3ccc(F)cc3)nc12`, for which the EC50 (commonly the midpoint of the concentration-response curve) came to 9.5 nM in experiment [2] and 1400 nM in experiment [3]. The compound also registered an IC50 in experiment [1] of 170 nM.
Turning to `CC(C)Oc1cc(N2CCOCC2)cn2c(=O)c(O)c(C(=O)NCc3ccc(F)cc3)nc12`, in experiment [2], the EC50 amounted to 5 nM. In experiment [1], this compound displayed an IC50 of 245 nM.
Taken in the same sequence, the figures for `O=C(NCc1ccc(F)cc1)c1nc2ccc(N3CCOCC3)cn2c(=O)c1O` were 215 nM and 80 nM.
Turning to `O=C(NCc1ccc(F)cc1)c1nc2c(OCC3CC3)cc(N3CCOCC3)cn2c(=O)c1O`, the EC50 came to 12 nM in experiment [2] and 590 nM in experiment [3]. For the same compound, the IC50 in experiment [1] stood at 429 nM.
On to `O=C(NCc1ccc(F)cc1)c1nc2c(OCc3ccc(F)cc3)cc(N3CCOCC3)cn2c(=O)c1O`, for which the EC50 in experiment [2] was determined as 80 nM. The compound further returned an IC50 in experiment [1] of 275 nM.
Take `O=C(NCc1ccc(F)cc1)c1nc2c(N3CCOCC3)cc(N3CCOCC3)cn2c(=O)c1O`: the results for the EC50 in experiment [2] and in experiment [3] were 730 nM and 1550 nM, respectively. The same compound displayed an IC50 in experiment [1] of 755 nM.
Taken in the same sequence, the figures for `O=C(NCc1ccc(F)cc1)c1nc2c(I)cc(N3CCOCC3)cn2c(=O)c1O` were 6 nM, 50 nM and 85 nM.
In the same order, the values of `O=C(NCc1ccc(F)cc1)c1nc2c(Br)cc(N3CCOCC3)cn2c(=O)c1O` are 7 nM, 70 nM and 130 nM.
As for `O=C(NCc1ccc(F)cc1)c1nc2c(Cl)cc(N3CCOCC3)cn2c(=O)c1O`, the EC50 in experiment [2] was 11 nM; in experiment [3] it was 158 nM. In experiment [1], the IC50 was 135 nM.
In the same order, the values of `O=C(NCc1ccc(F)cc1)c1nc2c(N3CCCS3(=O)=O)cc(N3CCOCC3)cn2c(=O)c1O` are 10.3 nM, 18 nM and 195 nM.
Regarding `O=C(NCc1cc(Cl)cc(Cl)c1)c1nc2c(N3CCCS3(=O)=O)cc(N3CCOCC3)cn2c(=O)c1O`, the EC50 in experiment [2] amounted to 0.2 nM; in experiment [3] it was 43 nM. The compound also had an IC50 in experiment [1] of 130 nM.
Taken in the same sequence, the figures for `CC(=O)N1CCN(c2cc(Br)c3nc(C(=O)NCc4ccc(F)cc4)c(O)c(=O)n3c2)CC1` were 8 nM, 40 nM and 110 nM.
Regarding `O=C(NCc1ccc(F)cc1)c1nc2c(N3CCCS3(=O)=O)cc(N3CCNCC3)cn2c(=O)c1O`, the results for the EC50 in experiment [2] and in experiment [3] were 280 nM and 43 nM, respectively.
In the same order, the values of `CN1CCN(c2cc(N(C)S(C)(=O)=O)c3nc(C(=O)NCc4ccc(F)cc4)c(O)c(=O)n3c2)CC1` are 19.8 nM and 61.5 nM.
Taken in the same sequence, the figures for `CN1CCN(c2cc(N3CCN(C)S3(=O)=O)c3nc(C(=O)NCc4ccc(F)cc4)c(O)c(=O)n3c2)CC1` were 3 nM and 4 nM.
`O=C(NCc1ccc(F)cc1)c1nc2ccc(Br)cn2c(=O)c1O` registered an IC50 in experiment [1] of 445 nM.
Turning to `Cn1ccn2c(=O)c(O)c(C(=O)NCc3ccc(F)cc3)nc12`, 76.8 nM corresponded to half-maximal inhibition in experiment [1] (IC50).
Same read-out and setting: in the case of `O=C(NCc1ccc(F)cc1)c1nc2[nH]c3ccccc3n2c(=O)c1O` it was above 100000 nM; in that of `Cn1c2ccccc2n2c(=O)c(O)c(C(=O)NCc3ccc(F)cc3)nc12`, 20200 nM.
Still for that read-out and setting: in the case of `O=C(NCc1ccc(F)cc1)c1nc2cc(-c3ccccc3)[nH]n2c(=O)c1O` it was above 100000 nM; in that of `N#Cc1c[nH]n2c(=O)c(O)c(C(=O)NCc3ccc(F)cc3)nc12`, 13700 nM; in that of `Cn1ccc2nc(C(=O)NCc3ccc(F)cc3)c(O)c(=O)n21`, above 30000 nM.
The same measure, in the same setting: in the case of `O=C(NCc1ccc(F)cc1)c1nc2c3ccccc3[nH]n2c(=O)c1O` it was above 10000 nM; in that of `Cn1c2ccccc2c2nc(C(=O)NCc3ccc(F)cc3)c(O)c(=O)n21`, 626 nM.
`O=C(NCc1ccc(F)cc1)c1nc2sccn2c(=O)c1O`: 33200 nM corresponded to half-maximal inhibition in experiment [1] (IC50).
On the same count and under the same terms, in the case of `Cc1cn2c(=O)c(O)c(C(=O)NCc3ccc(F)cc3)nc2s1` it was 4250 nM.
Same read-out and setting: in the case of `O=C(NCc1ccc(F)cc1)c1nc2ccccn2c(=O)c1O` it was 587 nM.
`CCN(C(=O)C(=O)N1CCOCC1)c1cccn2c(=O)c(O)c(C(=O)NCc3ccc(F)cc3)nc12`: in experiment [2], the EC50 came out at 31 nM.
As for `Cc1nnc(C(=O)NC(C)(C)c2nc(C(=O)NCc3ccc(F)cc3)c(O)c(=O)n2C)o1` [RALTEGRAVIR POTASSIUM], the figures for the EC50 in experiment [2] and in experiment [3] were 9.4 nM and 7.1 nM, respectively.
